Read-outs that look alike come from different tables or passages of the source.
Tests used:
[1] = system: HePG2 hepatocarcinoma cells; format: cell-based; settings: human
Protocol: The cells were incubated for 2 h (37° C. and 5% CO2) and allowed to settle and attach. Compounds of interest or DMSO were diluted in DMEM and added at final compound concentrations of 1 μM, 10 μM, and 100 μM. Cells were incubated for 4 hours and 24 hours after which the media was discarded. Cells were lysed by adding 30 μL of passive lysis buffer (Promega) and shaken at RT for 15 min. Cell viability was determined by quantifying the ATP present in each well by adding 10 μL of CellTiter-Glo (Promega) per well and measuring the light output Spectramax L luminometer (Molecular Devices) with an integration time of one second per well. Data was normalized to 100% viability for cells receiving only DMSO without any concurrent compound.

ALK2 = biological target: T1, ALK2 (Homo sapiens, UniProt Q04771, Q207D); experiment: Thermal shift kinase assay ALK2; format: binding; settings: for ΔTmDiff.: ALK2 minus ALK5
T1 construct: His tag (TEV-cleavable) (N, cleaved yes); made in house; host or cells: Sf9 insect cells (baculovirus)
T1 sequence (Q04771 201-499 Q207D): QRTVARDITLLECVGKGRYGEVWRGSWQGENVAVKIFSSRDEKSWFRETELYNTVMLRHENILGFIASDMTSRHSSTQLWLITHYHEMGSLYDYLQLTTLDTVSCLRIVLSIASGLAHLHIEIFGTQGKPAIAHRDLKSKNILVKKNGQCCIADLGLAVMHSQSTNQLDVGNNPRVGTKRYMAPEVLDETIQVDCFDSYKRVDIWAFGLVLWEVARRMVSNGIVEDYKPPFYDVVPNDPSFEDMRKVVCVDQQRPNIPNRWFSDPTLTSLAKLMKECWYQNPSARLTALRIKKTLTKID
Protocol: Thermal melting experiments were performed using a Real Time PCR machine Mx3005p (Stratagene) with a protein concentration of 1-2 μM and 10 μM inhibitor as described by Niesen et al., Nat Protoc 2007, 2, 2212-21. Recombinant human kinases for DSF screening were prepared by SGC using the published methods of Sanvitale et al., PLoS One 2013, 8, e62721. The potency and selectivity of certain compounds of the invention based on thermal shift kinase and ligand induced transcriptional activity assays are shown in Table 2.

BMP6 = experiment: Ligand induced transcriptional activity assay BMP6 (BRE-Luc); format: cell-based; settings: cell-based signaling inhibition; read-out: BMP6 IC50

Compound | ΔTmDiff. (ALK2) | IC50 (BMP6) | ΔTm at 10 µM (ALK2; 10 μM inhibitor) | Cell viability ([1]; 4 h, 1 μM) | Cell viability ([1]; 4 h, 10 μM) | Cell viability ([1]; 4 h, 100 μM) | Cell viability ([1]; 24 h, 1 μM) | Cell viability ([1]; 24 h, 10 μM) | Cell viability ([1]; 24 h, 100 μM)
COc1cc2ncnc(Nc3ccc(F)c(Cl)c3)c2cc1OCCCN1CCOCC1 [Gefitinib, reference compound] | – | – | – | 93% | 105% | 104% | 98% | 82% | 85%
CCCS(=O)(=O)Nc1ccc(F)c(C(=O)c2c[nH]c3ncc(-c4ccc(Cl)cc4)cc23)c1F [Vemurafenib, reference compound] | – | – | – | 103% | 100% | 102% | 95% | 77% | –
CS(=O)(=O)CCNCc1ccc(-c2ccc3ncnc(Nc4ccc(OCc5cccc(F)c5)c(Cl)c4)c3c2)o1 [Lapatinib, reference compound] | – | – | – | 100% | 104% | 104% | 98% | 92% | 89%
Nc1ncc(-c2ccc(N3CCNCC3)cc2)cc1-c1ccnc2ccccc12 [Compound 29] | 3.4 | 110 ± 50 nM | – | 91% | 104% | 108% | 108% | 84% | –
CNc1ncc(-c2ccc(N3CCNCC3)cc2)cc1-c1cc(OC)c(OC)c(OC)c1 [Compound 24, N-methyl-5-(4-(piperazin-1-yl)phenyl)-3-(3,4,5-trimethoxyphenyl)pyridin-2-amine] | −0.5 | – | – | 95% | 105% | 86% | 101% | 86% | –
Cc1nc(Nc2ncc(C(=O)Nc3c(C)cccc3Cl)s2)cc(N2CCN(CCO)CC2)n1 [Dasatinib, reference compound] | – | – | – | 94% | 107% | – | 87% | – | –
C#Cc1cccc(Nc2ncnc3cc(OCCOC)c(OCCOC)cc23)c1 [Erlotinib, reference compound] | – | – | – | 96% | 107% | 108% | 99% | 84% | 84%
CCN(CC)CCNC(=O)c1c(C)[nH]c(/C=C2\C(=O)Nc3ccc(F)cc32)c1C [Sunitinib, reference compound] | – | – | – | 97% | 107% | – | 96% | – | –
CC(C)Oc1cccc(-c2cc(-c3ccc(N4CCNCC4)cc3)cnc2N)c1 [Compound 21, 3-(3-isopropoxyphenyl)-5-(4-(piperazin-1-yl)phenyl)pyridin-2-amine] | 1.0 | – | – | 94% | 105% | – | 98% | 82% | –
COc1cc(-c2cnn3cc(-c4ccc(N5CCNCC5)cc4)cnc23)cc(OC)c1OC [Compound 32, 3-(3,4,5-trimethoxyphenyl)-6-[4-(1-piperazinyl)phenyl]pyrazolo[1,5-a]pyrimidine] | 2.6 | 20 ± 2 nM | – | 92% | 101% | – | 99% | – | –
Cc1cn(-c2cc(NC(=O)c3ccc(C)c(Nc4nccc(-c5cccnc5)n4)c3)cc(C(F)(F)F)c2)cn1 [Nilotinib, reference compound] | – | – | – | 99% | 106% | 105% | 100% | 101% | 91%
N#CC[C@H](C1CCCC1)n1cc(-c2ncnc3[nH]ccc23)cn1 [Ruxolitinib, reference compound] | – | – | – | 101% | 105% | 88% | 100% | 90% | –

Continued, in another order:

ΔTmDiff. (ALK2) | IC50 (BMP6) | ΔTm at 10 µM (ALK2; 10 μM inhibitor) | Compound | Cell viability ([1]; 4 h, 1 μM) | Cell viability ([1]; 4 h, 10 μM) | Cell viability ([1]; 4 h, 100 μM) | Cell viability ([1]; 24 h, 1 μM) | Cell viability ([1]; 24 h, 10 μM) | Cell viability ([1]; 24 h, 100 μM)
4.0 | 730 ± 100 nM | – | Nc1ncc(-c2ccc(N3CCNCC3)cc2)cc1-c1ccc2c(c1)OCCO2 [Compound 19, 3-(2,3-dihydrobenzo[b][1,4]dioxin-6-yl)-5-(4-(piperazin-1-yl)phenyl)pyridin-2-amine] | 100% | 102% | 91% | 103% | 95% | –
2.5 | 520 ± 60 nM | – | Nc1ncc(-c2cccc(N3CCNCC3)c2)cc1-c1ccnc2ccccc12 [Compound 30, 5-(3-(piperazin-1-yl)phenyl)-3-(quinolin-4-yl)pyridin-2-amine] | 92% | 104% | – | 104% | 92% | 5%
4.7 | – | – | COc1cc(OC)cc(-c2cncc(-c3ccc(N4CCNCC4)cc3)c2)c1 [Compound 33, 1-(4-(5-(3,5-dimethoxyphenyl)pyridin-3-yl)phenyl)piperazine] | 95% | 100% | – | 101% | 92% | –
2.7 | 160 ± 10 nM | – | COc1cc(-c2cc(-c3ccc(N4CCNCC4)cc3)cnc2N)ccc1Cl [Compound 22, 3-(4-chloro-3-methoxyphenyl)-5-(4-(piperazin-1-yl)phenyl)pyridin-2-amine] | 96% | 104% | – | 101% | 81% | –
3.5 | 40 ± 10 nM | – | COc1cc(OC)cc(-c2cc(-c3ccc(N4CCNCC4)cc3)cnc2N)c1 [Compound 17, 3-(3,5-dimethoxyphenyl)-5-(4-(piperazin-1-yl)phenyl)pyridin-2-amine] | 95% | 99% | – | 99% | 80% | –
4.5 | – | – | COc1ccc(-c2cc(-c3ccc(N4CCNCC4)cc3)cnc2N)cc1 [Compound 20, 3-(4-methoxyphenyl)-5-(4-(piperazin-1-yl)phenyl)pyridin-2-amine] | 106% | 102% | – | 108% | 104% | –
4.3 | – | – | COc1ccc(-c2cc(-c3ccc(N4CCNCC4)cc3)cnc2N)cc1OC [Compound 16, 3-(3,4-dimethoxyphenyl)-5-(4-(piperazin-1-yl)phenyl)pyridin-2-amine] | – | – | – | – | – | –
2.0 | 420 ± 170 nM | 13.2 °C | COc1cc(-c2cc(-c3cccc(O)c3)cnc2N)cc(OC)c1OC [Compound K02288, 3-(6-Amino-5-(3,4,5-trimethoxyphenyl)pyridin-3-yl)phenol, reference compound] | 103% | 107% | 115% | 106% | 110% | –
0.9 | 60 ± 10 nM | – | COc1cc(-c2cc(-c3cccc(NS(C)(=O)=O)c3)cnc2N)cc(OC)c1OC [Compound 13, N-(3-(6-amino-5-(3,4,5-trimethoxyphenyl)pyridin-3-yl)phenyl)methanesulfonamide] | 97% | 100% | 95% | 101% | 98% | 82%
0.8 | – | – | COc1cc(-c2cc(-c3cccc(N4CCNCC4)c3)cnc2N)cc(OC)c1OC [Compound 14, 5-(3-(piperazin-1-yl)phenyl)-3-(3,4,5-trimethoxyphenyl)pyridin-2-amine] | 96% | 110% | 99% | 99% | 93% | –
3.8 | – | – | COc1cc(-c2cc(-c3ccc(N4CCNCC4)cc3)cnc2N)ccc1C [Compound 23, 3-(3-methoxy-4-methylphenyl)-5-(4-(piperazin-1-yl)phenyl)pyridin-2-amine] | 95% | 101% | – | 98% | 86% | –
3.8 | – | – | COc1cccc(-c2cc(-c3ccc(N4CCNCC4)cc3)cnc2N)c1 [Compound 18, 3-(3-methoxyphenyl)-5-(4-(piperazin-1-yl)phenyl)pyridin-2-amine] | 98% | 101% | 106% | 103% | 100% | –

Reference: US20170190705A1, “Compositions and Methods for Inhibiting BMP” (THE BRIGHAM AND WOMAN'S HOSPITAL, INC., priority 2014, published 2017)
